In one data set the test system is dd-strain male mice. The data set is described as follows: Acute toxicity test (minimum lethal dose, oral). Format: in vivo. The following applies: oral administration, three mice per group, mortality seven days after administration. On the procedure:
Test compounds were orally administered to groups of dd-strain male mice weighing 20 ± 1 g, each group consisting of three mice. Seven days after the administration, minimum lethal dose (MLD) of each compound was determined by observing the mortality.

Data set [1] has as its target T1, A₂ receptor (Rattus norvegicus, UniProt P30543).
T1 construct: from tissue; host or cells: rat corpus striatum membrane preparation
The data set is described as follows: Adenosine A₂ receptor binding test (³H-NECA binding). The following applies: for inhibition at 0.1 µM / inhibition at 1 µM / inhibition at 10 µM / inhibition at 100 µM: read-out: Inhibition (%) A₂ Receptor; for Ki: ³H-NECA binding; for Ratio (A₁/A₂): ratio of Ki values A₁/A₂.

For another data set, the target named is T2, A₁ receptor (Cavia porcellus, UniProt P47745).
T2 construct: from tissue; host or cells: guinea pig cerebrum membrane preparation
T2 sequence (P47745 1-326): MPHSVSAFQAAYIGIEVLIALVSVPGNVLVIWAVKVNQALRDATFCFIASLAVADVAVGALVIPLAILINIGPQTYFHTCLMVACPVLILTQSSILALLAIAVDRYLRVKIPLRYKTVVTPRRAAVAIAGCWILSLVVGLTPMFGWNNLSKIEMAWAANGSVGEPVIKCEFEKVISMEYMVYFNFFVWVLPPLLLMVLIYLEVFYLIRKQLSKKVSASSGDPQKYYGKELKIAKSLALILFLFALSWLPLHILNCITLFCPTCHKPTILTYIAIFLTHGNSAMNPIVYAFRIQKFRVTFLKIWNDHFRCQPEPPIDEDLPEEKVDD
In words: Adenosine A₁ receptor binding test (³H-CHA binding). The following applies: for inhibition at 100 µM: 10⁻⁴M; for inhibition at 100 µM / inhibition at 10 µM: guinea pig cerebrum; for inhibition at 10 µM: 10⁻⁵M; for Ki: Cheng-Prusoff's equation. On the set-up: species or system guinea pig. On the procedure:
Cerebrum of a guinea pig was suspended in ice-cooled 50 mM Tris hydroxymethyl aminomethane hydrochloride (Tris HCl) buffer (pH 7.7) by using Polytron homogenizer (manufactured by […] Co.). […] The suspension was centrifuged under the same conditions, and the final precipitate was suspended once again in 50 mM Tris HCl buffer to give a tissue concentration of 100 mg (wet weight)/ml. The tissue suspension was incubated at 37°C for 30 minutes in the presence of 0.02 unit/mg tissue of adenosine deaminase (manufactured by Sigma Co.). The tissue suspension was then centrifuged (50,000 x g, 10 minutes), and 50 mM Tris HCl buffer was added to the precipitate to adjust the concentration of tissue to 10 mg (wet weight)/ml. […] The mixture solution was allowed to stand at 25°C for 90 minutes and then rapidly filtered by suction through a glass fiber filter (GF/C manufactured by Whatman Co.). […] The radioactivity on the filter was determined with a liquid scintillation counter (manufactured by Packard Instrument Co.). […] The inhibition constant (Ki value) shown in the table was calculated by the Cheng-Prusoff's equation.

The target in data set [2] is T1, A₂ receptor. The data set is described as follows: Adenosine A₂ receptor binding test (³H-CGS 21680 binding). The following applies: [^3H]CGS 21680 was used, rat corpus striatum, read-out: A2 Receptor Inhibition (%); for inhibition at 1 µM: 10^-6M; for inhibition at 0.1 µM: 10^-7M. On the procedure:
The similar procedure as in the above-described adenosine A₁ receptor binding test was repeated using rat corpus striatum to obtain the final precipitate of the tissue thereof. The precipitate was suspended in 50 mM Tris HCl buffer containing 10 mM magnesium chloride and 0.02 unit/mg tissue of adenosine deaminase (manufactured by Sigma Co.) to give a tissue concentration of 5 mg (wet weight)/ml.
The similar procedure as above was repeated to determine the radioactivity bound to the A₂ receptors using 50 µl of CGS 21680 labeled with tritium [³H-2-[p-(2-carboxyethyl)-phenethylamino]-5'-(N-ethylcarboxamide)adenosine: 40 Ci/mmol, manufactured by New England Nuclear Co. (J. Pharmacol. Exp. Ther., 251, 888 (1989)] (final concentration: 4.0 nM) in place of 50 µl of the mixture of N-ethylcarboxamidoadenosine labeled with tritium (³H-NECA: 26 Ci/mmol, manufactured by Amersham Co.) (final concentration: 3.8 nM) and cyclopentyladenosine (CPA, manufactured by Sigma Co.) (final concentration: 50 nM).
The inhibition rate of the test compound against the binding of A₂ receptors (³H-CGS 21680 binding) was calculated by the following equation: [formula] [Notes] • 1. "B" means the amount of radioactivity of ³H-CGS 21680 bound in the presence of a test compound at a concentration shown in Table 4. • 2. "T" means the amount of radioactivity of ³H-CGS 21680 bound in the absence of a test compound. • 3. "N" means the amount of radioactivity of ³H-CGS 21680 bound in the presence of 100 µM CPA.

Data set [3] has as its system Haloperidol-Induced Catalepsy. In words: Effect on haloperidol-induced catalepsy. It counts as in vivo, mice. The following applies: 10 mg/kg orally; for Number of the Animals Showing Remission: of five mice, catalepsy score not more than 4 points; for Remission Rate (%): rate of decrease in total score based on control group; for Total Score: total catalepsy score of five mice (25 points at the full), haloperidol 1.0 mg/kg i.p. The gist of the method:
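Mice got haloperidol 1.0 mg/kg i.p. in 0.3% CMC, then test compounds orally 1 hr later in 0.3% CMC or Tween 80/water. Catalepsy was scored on a 4.5 cm-high bar 1 hr after dosing; remission meant score ≤4 points. ED₅₀ came from Probit analysis.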

T1 sequence (P30543 whole entry): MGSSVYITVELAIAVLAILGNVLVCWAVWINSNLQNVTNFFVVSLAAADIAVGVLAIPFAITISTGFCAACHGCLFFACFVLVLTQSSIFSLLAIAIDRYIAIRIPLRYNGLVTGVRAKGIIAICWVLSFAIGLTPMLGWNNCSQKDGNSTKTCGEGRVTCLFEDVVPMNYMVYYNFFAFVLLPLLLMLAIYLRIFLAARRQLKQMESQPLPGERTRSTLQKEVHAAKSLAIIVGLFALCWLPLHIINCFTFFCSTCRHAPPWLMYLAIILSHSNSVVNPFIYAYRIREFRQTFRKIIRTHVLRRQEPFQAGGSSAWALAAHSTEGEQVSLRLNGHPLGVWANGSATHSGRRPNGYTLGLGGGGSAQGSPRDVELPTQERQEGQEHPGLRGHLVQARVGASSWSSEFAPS

The term inhibition denotes the change of the read-out against control, counted positive when it falls. One may read the Ki as the equilibrium dissociation constant of an inhibitor or competing ligand from its target. Read a high Ki as weaker binding. In the data set on dd-strain male mice, `CCn1c(=O)c2[nH]c(/C=C/c3ccc(OC)c(OC)c3)nc2n(CC)c1=O` [Compound 1, (E)-8-(3,4-Dimethoxystyryl)-1,3-diethylxanthine] registered an MLD of over 300 mg/kg. At A₂ receptor [1], the inhibition at 0.1 µM came to 53%, the inhibition at 1 µM stood at 86%, the inhibition at 10 µM was determined as 98% and the inhibition at 100 µM is 100%. For the same molecule, affinity on A₂ receptor [1] was put at a Ki of 23 nM. Further, at A₁ receptor, the inhibition at 100 µM came to 86% and the inhibition at 10 µM came to 84%.

In the data set on dd-strain male mice, `CCn1c(=O)c2c(nc(/C=C/c3cccc(OC)c3OC)n2C)n(CC)c1=O` [Compound 4, (E)-8-(2,3-Dimethoxystyryl)-1,3-diethyl-7-methylxanthine] gave an MLD of over 300 mg/kg. Moreover, on A₂ receptor [1], the inhibition at 0.1 µM worked out at 57%, the inhibition at 1 µM stood at 84%, the inhibition at 10 µM stood at 88% and the inhibition at 100 µM came to 90%. The affinity on A₂ receptor [1], expressed as Ki, was 33 nM. At A₁ receptor, the inhibition at 100 µM was found to be 70% and the inhibition at 10 µM worked out at 55%.

In the data set on dd-strain male mice, `CCn1c(=O)c2[nH]c(/C=C/c3ccc(OC)c(OC)c3OC)nc2n(CC)c1=O` [Compound 7, (E)-1,3-Diethyl-8-(2,3,4-trimethoxystyryl)xanthine] showed an MLD of over 300 mg/kg. At A₂ receptor [1], the “Ratio (A₁/A₂)” value was over 670, the inhibition at 0.1 µM came to 65%, the inhibition at 1 µM was found to be 88% and the inhibition at 10 µM came to 75%. In addition, on A₂ receptor [1], the inhibition at 100 µM worked out at 83% and the affinity corresponds to a Ki of 15 nM. At A₁ receptor, the inhibition at 100 µM was 49%, the inhibition at 10 µM was determined as 34% and the Ki is over 10000 nM.

The molecule `CCn1c(=O)c2[nH]c(/C=C/c3ccc(OC)c(C)c3C)nc2n(CC)c1=O` [Compound 9, (E)-1,3-Diethyl-8-(4-methoxy-2,3-dimethylstyryl)xanthine] showed an MLD with dd-strain male mice of over 300 mg/kg. In addition, on A₂ receptor [1], the “Ratio (A₁/A₂)” value is recorded as > 32,000, the inhibition at 0.1 µM turned out to be 79%, the inhibition at 1 µM was 84% and the inhibition at 10 µM was 73%. On A₂ receptor [1], the inhibition at 100 µM stood at 86% and the Ki amounted to 3.1 nM. For the same molecule, on A₁ receptor, the inhibition at 100 µM came out at 26%, the inhibition at 10 µM came out at 14% and the Ki was over 100000 nM.

`CCn1c(=O)c2[nH]c(/C=C/c3ccc(OC)c(C)c3OC)nc2n(CC)c1=O` [Compound 13, (E)-8-(2,4-Dimethoxy-3-methylstyryl)-1,3-diethylxanthine] had an MLD in the data set on dd-strain male mice of over 300 mg/kg. Further, at A₂ receptor [1], the inhibition at 0.1 µM is 77%, the inhibition at 1 µM was found to be 84%, the inhibition at 10 µM turned out to be 88% and the inhibition at 100 µM was determined as 95%. The molecule also showed a Ki on A₂ receptor [1] of 9.5 nM. At A₁ receptor, the inhibition at 100 µM stood at 71% and the inhibition at 10 µM worked out at 59%.

`CCn1c(=O)c2[nH]c(/C=C/c3ccc4c(c3)OCO4)nc2n(CC)c1=O` [Compound 15, (E)-1,3-Diethyl-8-(3,4-methylenedioxystyryl)xanthine] returned an MLD in the data set with dd-strain male mice of over 300 mg/kg. Further, at A₂ receptor [1], the inhibition at 0.1 µM stood at 53%, the inhibition at 1 µM turned out to be 64%, the inhibition at 10 µM worked out at 70% and the inhibition at 100 µM came to 70%. The Ki on A₂ receptor [1] amounted to 15 nM. For the same molecule, at A₁ receptor, the inhibition at 100 µM is 35%, the inhibition at 10 µM amounted to 25% and the Ki is over 100000 nM.

With `CCn1c(=O)c2[nH]c(/C=C/c3ccc4c(c3)OCCO4)nc2n(CC)c1=O` [Compound 17, (E)-8-[2-(1,4-Benzodioxan-6-yl)vinyl]-1,3-diethylxanthine], the MLD with dd-strain male mice is reported as over 100 mg/kg. At A₂ receptor [1], the “Ratio (A₁/A₂)” value is > 16,000, the inhibition at 0.1 µM came out at 70%, the inhibition at 1 µM worked out at 69% and the inhibition at 10 µM came to 80%. Moreover, on A₂ receptor [1], the inhibition at 100 µM worked out at 80% and the Ki stood at 6.3 nM. In addition, at A₁ receptor, the inhibition at 100 µM stood at 31%, the inhibition at 10 µM was found to be 23% and the Ki was over 100000 nM.

Consider `CCn1c(=O)c2c(nc(/C=C/c3ccc(OC)c(F)c3)n2C)n(CC)c1=O` [Compound 103, (E)-1,3-Diethyl-8-(3-fluoro-4-methoxystyryl)-7-methylxanthine], for which, on A₂ receptor [2], the inhibition at 1 µM stood at 102% and the inhibition at 0.1 µM amounted to 75%. The MLD in the data set on dd-strain male mice is listed as over 100 mg/kg. Moreover, in data set [3], the “Number of the Animals Showing Remission” value worked out at 3, the “Remission Rate (%)” value is listed as 36% and the “Total Score” value amounted to 16.

As to `CCn1c(=O)c2c(nc(/C=C/c3cccc(F)c3C)n2C)n(CC)c1=O` [Compound 109, (E)-1,3-Diethyl-8-(3-fluoro-2-methylstyryl)-7-methylxanthine], on A₂ receptor [2], the inhibition at 1 µM was found to be 96% and the inhibition at 0.1 µM was determined as 97%. Further, the MLD with dd-strain male mice is on record as over 100 mg/kg. Besides, in data set [3], the “Number of the Animals Showing Remission” value is 5, the “Remission Rate (%)” value came out at 84% and the “Total Score” value turned out to be 4.

Turning to `CCn1c(=O)c2c(nc(/C=C/c3ccc(O)c(O)c3)n2C)n(CC)c1=O` [Compound 110, (E)-8-(3,4-Dihydroxystyryl)-1,3-diethyl-7-methylxanthine], at A₂ receptor [2], the inhibition at 1 µM turned out to be 96% and the inhibition at 0.1 µM is 61%. The molecule further displayed an MLD in the data set on dd-strain male mice of over 100 mg/kg. For the same molecule, in data set [3], the “Number of the Animals Showing Remission” value was found to be 3, the “Remission Rate (%)” value came out at 20% and the “Total Score” value is listed as 20.

Take `CCn1c(=O)c2c(nc(/C=C/c3ccc(O)cc3)n2C)n(CC)c1=O` [Compound 112, (E)-1,3-Diethyl-8-(4-hydroxystyryl)-7-methylxanthine]: on A₂ receptor [2], the inhibition at 1 µM is 95% and the inhibition at 0.1 µM was 79%. The same molecule gave an MLD in the data set on dd-strain male mice of over 100 mg/kg. Besides, in data set [3], the “Number of the Animals Showing Remission” value stood at 5, the “Remission Rate (%)” value is 84% and the “Total Score” value came to 4.

Take `CCn1c(=O)c2c(nc(/C=C/c3ccc(OCc4ccccc4)cc3)n2C)n(CC)c1=O` [Compound 113, (E)-8-(4-Benzyloxystyryl)-1,3-diethyl-7-methylxanthine]: at A₂ receptor [2], the inhibition at 1 µM turned out to be 68% and the inhibition at 0.1 µM was 34%. Besides, the MLD with dd-strain male mice is on record as over 100 mg/kg. In data set [3], the “Number of the Animals Showing Remission” value was 3, the “Remission Rate (%)” value stood at 24% and the “Total Score” value came to 19.
